In ChEMBL document CHEMBL4665661, “Design, synthesis, and biological activity evaluation of (-)-6-O-desmethylantofine analogues as potent anti-cancer agents” (Bioorg Med Chem, 2019):
Active and inactive are the calls of the source. The calls are words filed in the database; no cut-off is given here.

Columns and labels:
Bel-7402 [1] = experiment: Inhibition of DNA synthesis in human Bel-7402 cells assessed as Brdu positive cells at 1 uM measured after 1 hrs by propidium iodide staining-based BrdU incorporation assay (reference value: 29.8%); format: functional; set-up: scale not given: the % may be the effect or the level left; details: time 30 min, 0.5 h
T47D = experiment: Antiproliferative activity against human T47D cells incubated for 72 hrs by MTT assay; format: functional, cell-based
KATO III = experiment: Antiproliferative activity against human […] cells incubated for 72 hrs by MTT assay; format: functional, cell-based
Bel-7402 [2] = experiment: Induction of apoptosis in human Bel-7402 cells assessed as necrotic cells at 1 uM after 72 hrs by FITC-annexin V/propidium iodide-double staining based flow cytometry (reference value: 2.86%); format: functional
HeLa = experiment: Antiproliferative activity against human HeLa cells incubated for 72 hrs by MTT assay; format: functional, cell-based
Detroit 562 = experiment: Antiproliferative activity against human Detroit 562 cells incubated for 72 hrs by MTT assay; format: functional, cell-based
Huh-7 = experiment: Antiproliferative activity against human HuH7 cells incubated for 72 hrs by MTT assay; format: functional, cell-based
SMMC-7721 = experiment: Cell cycle arrest in human SMMC-7721 cells assessed as inhibition of DNA synthesis by measuring increase in cell population at S phase at 20 to 200 nM after 24 hrs by RNase A/propidium iodide staining-based flow cytometric analysis; format: functional
SJRH30 = experiment: Antiproliferative activity against human SJRH30 cells incubated for 72 hrs by MTT assay; format: functional, cell-based
Bel-7402 [3] = experiment: Induction of apoptosis in human Bel-7402 cells assessed as early apoptotic cells at 0.01 uM after 72 hrs by FITC-annexin V/propidium iodide-double staining based flow cytometry (reference value: 0.65%); format: functional
Bel-7402 [4] = experiment: Cell cycle arrest in human Bel-7402 cells assessed as increase in cell population at S phase at 11 nM by RNase A/propidium iodide staining-based flow cytometric analysis (reference value: 26.3%); format: functional
PC-3 = experiment: Antiproliferative activity against human PC-3 cells incubated for 72 hrs by MTT assay; format: functional, cell-based
Bel-7402 [5] = experiment: Induction of apoptosis in human Bel-7402 cells assessed as viable cells at 0.01 uM after 72 hrs by FITC-annexin V/propidium iodide-double staining based flow cytometry (reference value: 93.6%); format: functional; details: read-out: Activity
SK-BR-3 = experiment: Antiproliferative activity against human SK-BR-3 cells incubated for 72 hrs by MTT assay; format: functional, cell-based
Hep 3B2 = experiment: Antiproliferative activity against human Hep3B cells incubated for 72 hrs by MTT assay; format: functional, cell-based
HL-60 = experiment: Antiproliferative activity against human HL-60 cells after 72 hrs by MTT assay; format: functional, cell-based; details: HL-60, 72 h
K562 [6] = experiment: Cell cycle arrest in drug- resistant human K562/ADR cells assessed as inhibition of DNA synthesis by measuring increase in cell population at S phase at 1 to 100 nM upto 24 hrs by RNase A/propidium iodide staining-based flow cytometric analysis; format: functional; details: dose nM 1-100, time hrs <=24
Bel-7402 [7] = experiment: Induction of apoptosis in human Bel-7402 cells assessed as viable cells at 0.1 uM after 72 hrs by FITC-annexin V/propidium iodide-double staining based flow cytometry (reference value: 93.6%); format: functional; details: read-out: Activity
Bel-7402 [8] = experiment: Induction of apoptosis in human Bel-7402 cells assessed as viable cells at 1 uM after 72 hrs by FITC-annexin V/propidium iodide-double staining based flow cytometry (reference value: 93.6%); format: functional; details: read-out: Activity
MDA-MB-231 = experiment: Antiproliferative activity against human MDA-MB-231 cells incubated for 72 hrs by MTT assay; format: functional, cell-based
786-0 = experiment: Antiproliferative activity against human 786-0 cells incubated for 72 hrs by MTT assay; format: functional, cell-based
COLO 205 = experiment: Antiproliferative activity against human COLO 205 cells incubated for 72 hrs by MTT assay; format: functional, cell-based
MDA-MB-157 = experiment: Antiproliferative activity against human MDA-MB-157 cells incubated for 72 hrs by MTT assay; format: functional, cell-based
Bel-7402 [9] = experiment: Inhibition of DNA synthesis in human Bel-7402 cells assessed as Brdu positive cells at 0.01 uM measured after 1 hr by propidium iodide staining-based BrdU incorporation assay (reference value: 29.8%); format: functional; set-up: scale not given: the % may be the effect or the level left; details: time 30 min, 0.5 h
Bel-7402 [10] = experiment: Cell cycle arrest in human Bel-7402 cells assessed as increase in cell population at S phase at 1.2 nM by RNase A/propidium iodide staining-based flow cytometric analysis (reference value: 26.3%); format: functional
Bel-7402 [11] = experiment: Antiproliferative activity against human Bel-7402 cells at 11 to 33 nM by IncuCyte zoom live cell analysis; format: functional, cell-based; details: dose nM 11-33
Bel-7402 [12] = experiment: Cell cycle arrest in human Bel-7402 cells assessed as increase in cell population at S phase at 3.7 nM by RNase A/propidium iodide staining-based flow cytometric analysis (reference value: 26.3%); format: functional
Bel-7402 [13] = experiment: Induction of apoptosis in human Bel-7402 cells assessed as late apoptotic cells at 0.1 uM after 72 hrs by FITC-annexin V/propidium iodide-double staining based flow cytometry (reference value: 3.06%); format: functional
KB [14] = experiment: Cell cycle arrest in drug- resistant human KB/VCR cells assessed as inhibition of DNA synthesis by measuring increase in cell population at S phase at 1 to 10 nM upto 12 hrs by RNase A/propidium iodide staining-based flow cytometric analysis; format: functional; details: dose nM 1-10, time hrs <=12
BEL-7404 tumor cell line = experiment: Antiproliferative activity against human BEL-7404 cells incubated for 72 hrs by MTT assay; format: functional, cell-based
HepG2 = experiment: Antiproliferative activity against human HepG2 cells incubated for 72 hrs by MTT assay; format: functional, cell-based
Bel-7402 [15] = experiment: Effect on DNA damage marker protein level in human Bel-7402 cells assessed as phosphor gamma H2AX at 100 fold antiproliferative IC50 after 1 hr by Western blot analysis; format: functional, cell-based
KB [16] = experiment: Antiproliferative activity against human KB cells; format: functional, cell-based
K562 [17] = experiment: Antiproliferative activity against human K562 cells incubated for 72 hrs by MTT assay; format: functional, cell-based
Bel-7402 [18] = experiment: Induction of apoptosis in human Bel-7402 cells assessed as necrotic cells at 1 uM after 3 days by […]; format: functional; details: time 3 day
SU-DHL-6 = experiment: Antiproliferative activity against human SU-DHL-6 cells incubated for 72 hrs by MTT assay; format: functional, cell-based
Bel-7402 [19] = experiment: Induction of apoptosis in human Bel-7402 cells assessed as early apoptotic cells at 0.1 uM after 72 hrs by FITC-annexin V/propidium iodide-double staining based flow cytometry (reference value: 0.65%); format: functional
Bel-7402 [20] = experiment: Induction of apoptosis in human Bel-7402 cells assessed as necrotic cells at 0.01 uM after 72 hrs by FITC-annexin V/propidium iodide-double staining based flow cytometry (reference value: 2.86%); format: functional
Bel-7402 [21] = experiment: Induction of apoptosis in human Bel-7402 cells assessed as early apoptotic cells at 1 uM after 72 hrs by FITC-annexin V/propidium iodide-double staining based flow cytometry (reference value: 0.65%); format: functional
Zip177 = experiment: Antiproliferative activity against human […] cells incubated for 72 hrs by MTT assay; format: functional, cell-based
U-118-MG = experiment: Antiproliferative activity against human U-118-MG cells incubated for 72 hrs by MTT assay; format: functional, cell-based

`COc1cc2c3c(c4ccc(OCC#N)cc4c2cc1OC)CN1CCC[C@@H]1C3` was tested, and the Activity (Bel-7402 [1]) was 8.15%, the inhibition (T47D) was “Active” and the inhibition (KATO III) was “Active”. For the same compound, the Activity (Bel-7402 [2]) was 3.73%, the inhibition (HeLa) was “Active” and the inhibition (Detroit 562) was “Active”. For the same compound, the inhibition (Huh-7) was “Active”, the Activity (SMMC-7721) was “Active” and the inhibition (SJRH30) was “Active”. The Activity (Bel-7402 [3]) was 0.55%, the Activity (Bel-7402 [4]) was 28.8% and the inhibition (PC-3) was “Active”. For the same compound, the viability at 0.01 µM (Bel-7402 [5]) was 96.3%, the inhibition (SK-BR-3) was “Active” and the inhibition (Hep 3B2) was “Active”. The IC50 (HL-60) was 44 nM, the Activity (K562 [6]) was “Active” and the viability at 0.1 µM (Bel-7402 [7]) was 87.8%. The viability at 1 µM (Bel-7402 [8]) was 79.2%, the inhibition (MDA-MB-231) was “Active” and the inhibition (786-0) was “Active”. The inhibition (COLO 205) was “Active”, the inhibition (MDA-MB-157) was “Active” and the Activity (Bel-7402 [9]) was 26.9%. For the same compound, the Activity (Bel-7402 [10]) was 24.5%, the inhibition (Bel-7402 [11]) was “Active” and the Activity (Bel-7402 [12]) was 27%. For the same compound, the Activity (Bel-7402 [13]) was 8.29%, the Activity (KB [14]) was “Active” and the inhibition (BEL-7404 tumor cell line) was “Active”. The inhibition (HepG2) was “Active”, the Activity (Bel-7402 [15]) was “inactive” and the IC50 (KB [16]) was 1100 nM. For the same compound, the inhibition (K562 [17]) was “Active”, the Activity (Bel-7402 [18]) was 20% and the inhibition (SU-DHL-6) was “Active”. It also gave an Activity (Bel-7402 [19]) of 0.78%, an Activity (Bel-7402 [20]) of 1.59% and an Activity (Bel-7402 [21]) of 1.6%. The inhibition (Zip177) was “Active” and the inhibition (U-118-MG) was “Active”.
